Assay results from patent US10940144B2, “Drug containing pyridylaminoacetic acid compound” (priority 2017, dated 2021).

Experiments:
[1] = tested on: retinal blood vessels; assay: Pharmacological Test 1: retinal vasodilatory action (retinal vascular diameter from fundus images) after intravitreal administration to rabbits; format: in vivo, rabbit; settings: for Base-Corrected Retinal Vascular Diameter Change Rate (%) 1 Hour After Administration / Base-Corrected Retinal Vascular Diameter Change Rate (%) 2 Hours After Administration / Base-Corrected Retinal Vascular Diameter Change Rate (%) 6 Hours After Administration / Base-Corrected Retinal Vascular Diameter Change Rate (%) 24 Hours After Administration: 20 μL intravitreal single injection, pigmented rabbits
Method: In order to find a new medicinal use of omidenepag, an ester thereof, or a salt thereof, the retinal vasodilatory action in the case of administering omidenepag to rabbits was examined. Omidenepag at 4.01 mg was dissolved in dimethyl sulfoxide to a total volume of 129 μL. Of the total volume, 10 μL was added and dissolved into physiological saline, and an appropriate amount of sodium hydroxide solution was added to adjust the pH of the formulation to 6.2. Thereafter, physiological saline was further added to a total volume of 10 mL to obtain omidenepag sample 1 (containing 0.00311% (w/v) (31.1 μg/mL) of omidenepag). In addition, the base A was added to 0.1 mL of omidenepag sample 1 to a total volume of 10 mL, and omidenepag sample 2 was obtained (containing 0.0000311% (w/v) (0.311 μg/mL) of omidenepag). CP-544326 (EP2 agonist) at 5.98 mg was dissolved in dimethyl sulfoxide to a total volume of 192 μL. Of the total volume, 10 μL was added and dissolved into physiological saline, and sodium hydroxide solution was added to adjust the pH of the formulation to 6.5. Thereafter, physiological saline was further added to a total volume of 10 mL to obtain CP-544326 sample 1 (containing 0.00311% (w/v) (31.1 μg/mL) of CP-544326). In addition, the base A was added to 0.1 mL of CP-544326 sample 1 to a total volume of 10 mL, and CP-544326 sample 2 was obtained (containing 0.0000311% (w/v) (0.311 μg/mL) of CP-544326). The base A, omidenepag samples 1 and 2, and CP-544326 samples 1 and 2 as test compound solutions, each at 20 μL, were administered intravitreally (injection, single time) to examine the change in retinal vascular diameter. In addition, pigmented rabbits (strain: Dutch, sex: male, three animals per group) were used as experimental animals. 1) After holding the above experimental animals, one drop (about 0.03 mL) of a 0.4% tropicamide ophthalmic solution (trade name: Mydrin-M ophthalmic solution 0.4%) was instilled into the retinal vascular diameter measurement eye to fully dilate the pupil. Thereafter, fundus images of the measurement eyes were captured, and the retinal vascular diameters and the like immediately before administration were measured from the obtained fundus images. 2) One drop (about 0.03 mL) of a 0.4% oxybuprocaine hydrochloride ophthalmic solution (trade name: Benoxil ophthalmic solution 0.4%) was instilled into the retinal vascular diameter measurement eye of each experimental animal for local anesthesia. Thereafter, a microsyringe connected with a 30 G injection needle was used to administer 20 μL of each test compound solution into the vitreous body. 3) At 1 hour, 2 hours, 6 hours, and 24 hours after administration of each test compound solution, fundus images of the retinal vascular diameter measuring eyes were captured, and the retinal vascular diameters and the like were measured from the obtained fundus images. (a) The fundus images captured immediately before the administration, 1 hour, 2 hours, 6 hours, and 24 hours after the administration were used to measure, as the vascular diameters, (i) the vascular diameter of the retinal artery on the nose side, (ii) the vascular diameter of the retinal artery on the ear side, and (iii) the optic nerve head diameter (longitudinal diameter passing through the center of the optic nerve head). (b) The average value of (i) the vascular diameter of the retinal artery on the nose side and (ii) the vascular diameter of the retinal artery on the ear side measured from the fundus images for each time period was divided by (iii) the optic nerve head diameter to calculate the corrected retinal vascular diameter. […]

[2] = tested on: optic nerve head tissue blood flow; assay: Pharmacological Test 3: optic nerve head tissue blood flow (laser speckle flowgraphy) after intravitreal administration to rabbits; format: in vivo, rabbit
Method: In order to find anew medicinal use of omidenepag, an ester thereof, or a salt thereof, the action of increasing tissue blood flow in the optic nerve head in the case of administering omidenepag to rabbits was examined.
Omidenepag at 3.99 to 4.03 mg was dissolved in dimethyl sulfoxide to a total volume of 128 to 130 μL. Of the total volume, 10 μL was added and dissolved into physiological saline, and an appropriate amount of sodium hydroxide solution was added to adjust the pH of the formulation to 6.3 to 7.2. Thereafter, physiological saline was further added to a total volume of 10 mL to obtain omidenepag sample 3 (containing 0.00311% (w/v) (31.1 μg/mL) of omidenepag).
The base C and omidenepag sample 3 as test compound solutions, each at 20 μL, were administered intravitreally (injection, single time) to examine the change in optic nerve head tissue blood flow. In addition, pigmented rabbits (strain: Dutch, sex: male, three animals per group) were used as experimental animals. […]
3) At 1 hour and 2 hours after administration of each test compound solution, the optic nerve head tissue blood flow of the optic nerve head tissue blood flow measurement eye was measured.
(a) The ratio of the optic nerve head tissue blood flow after passage of each of the time periods of 1 hour and 2 hours after administration to the optic nerve head tissue blood flow immediately before administration (optic nerve head tissue blood flow change rate (%)) was calculated. […]
(b) For each time period after administration, the difference (base-corrected optic nerve head tissue blood flow change rate (%)) was calculated between the optic nerve head tissue blood flow change rate (%) of the group administered with the base C simultaneously carried out and the optic nerve head tissue blood flow change rate (%) of the group administered with omidenepag sample 3. […]

SMILES	Base-Corrected Retinal Vascular Diameter Change Rate (%) 1 Hour After Administration ([1]; 0.0000311% (w/v) (0.311 μg/mL))	Base-Corrected Retinal Vascular Diameter Change Rate (%) 2 Hours After Administration ([1]; 0.0000311% (w/v) (0.311 μg/mL))	Base-Corrected Retinal Vascular Diameter Change Rate (%) 6 Hours After Administration ([1]; 0.0000311% (w/v) (0.311 μg/mL))	Base-Corrected Retinal Vascular Diameter Change Rate (%) 24 Hours After Administration ([1]; 0.0000311% (w/v) (0.311 μg/mL))	Base-Corrected Retinal Vascular Diameter Change Rate (%) 1 Hour After Administration ([1]; 0.00311% (w/v) (31.1 μg/mL))	Base-Corrected Retinal Vascular Diameter Change Rate (%) 2 Hours After Administration ([1]; 0.00311% (w/v) (31.1 μg/mL))	Base-Corrected Retinal Vascular Diameter Change Rate (%) 6 Hours After Administration ([1]; 0.00311% (w/v) (31.1 μg/mL))	Base-Corrected Retinal Vascular Diameter Change Rate (%) 24 Hours After Administration ([1]; 0.00311% (w/v) (31.1 μg/mL))	retinal vasodilatory action compared with CP-544326 (in words) ([1]; at the same concentration, intravitreal, rabbits)	Base-Corrected Optic Nerve Head Tissue Blood Flow Change Rate (%) 1 Hour After Administration ([2]; 0.00311% (w/v) (31.1 μg/mL), 20 μL intravitreal single injection, pigmented rabbits, 1 hour)	Base-Corrected Optic Nerve Head Tissue Blood Flow Change Rate (%) 2 Hours After Administration ([2]; 0.00311% (w/v) (31.1 μg/mL), 20 μL intravitreal single injection, pigmented rabbits, 2 hours)	blood flow increasing action, optic nerve head (in words) ([2]; intravitreal administration, rabbits)
O=C(O)CNc1cccc(CN(Cc2ccc(-n3cccn3)cc2)S(=O)(=O)c2cccnc2)n1 [Omidenepag, (6-{[4-(pyrazol-1-yl)benzyl](pyridin-3-ylsulfonyl)aminomethyl}pyridin-2-ylamino)acetic acid]	35.8%	35.4%	22.3%	2.9%	81.2%	71.9%	88.1%	11.8%	significantly stronger retinal vasodilatory action	343.6%	327.8%	significantly strong blood flow increasing action
O=C(O)COc1cccc(CN(Cc2ccc(-n3cccn3)cc2)S(=O)(=O)c2cccnc2)c1 [CP-544326, reference compound]	14.8%	9.0%	0.8%	3.5%	48.4%	57.5%	72.2%	3.7%	–	–	–	–
